Measurements reported in ChEMBL document CHEMBL1201862, “PubChem BioAssay data set” (2004).
Where a name gives a salt, the structure may show the parent alone. Active and inactive are the calls of the source.

What was measured:
[1] = target: Metabotropic glutamate receptor 5 (Rattus norvegicus, UniProt P31424); experiment: Identification of a glycine sulfonamide based non-MPEP site positive allosteric potentiator (PAM) of mGlu5 (calcium_assay).; type: functional
[2] = cells
[3] = target: Major prion protein (Homo sapiens, UniProt P04156); type: functional, cell-based
[4] = target: T1, Oxysterols receptor LXR-beta (Homo sapiens, UniProt P55055); type: functional, cell-based;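 also: agonist activity at LXR measured by a cell-based luminescence readout across a dose range, run as a counterscreen for daf-12 agonists; HEK293 cells with Gal4-LXR fusion and GAL4-driven luciferase reporter; potency for activation of Gal4-LXR reporter so compounds are agonists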
T1 sequence (P55055 whole entry): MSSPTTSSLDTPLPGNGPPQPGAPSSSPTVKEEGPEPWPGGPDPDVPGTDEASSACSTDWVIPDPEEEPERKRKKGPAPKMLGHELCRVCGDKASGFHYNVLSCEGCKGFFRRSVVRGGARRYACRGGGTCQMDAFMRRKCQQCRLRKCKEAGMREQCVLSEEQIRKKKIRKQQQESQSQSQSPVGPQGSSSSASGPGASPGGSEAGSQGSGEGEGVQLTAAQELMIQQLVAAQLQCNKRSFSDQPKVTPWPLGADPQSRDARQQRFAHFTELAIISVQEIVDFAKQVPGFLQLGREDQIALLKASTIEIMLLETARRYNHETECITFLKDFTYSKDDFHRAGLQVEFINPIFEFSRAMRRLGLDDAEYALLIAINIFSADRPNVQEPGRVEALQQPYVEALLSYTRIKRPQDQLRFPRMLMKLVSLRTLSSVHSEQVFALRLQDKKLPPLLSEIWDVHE

[5] = HeLa 4N DNA content increase, dose response, cell-based, IC50 (AID 1117351); type: functional
[6] = cells; type: functional, cell-based; details: INS-1E
[7] = HeLa 2N DNA content increase, dose response, cell-based, IC50 (AID 1117349); type: functional
[8] = HEK293T cell cytotoxicity, dose response, cytotoxicity control, luminescence plate reader, powder samples, set 4 (AID 651863); type: functional, cell-based; details: HEK293
[9] = cells; remark: listed apart in the source
[10] = target: NAD-dependent protein deacylase sirtuin-5, mitochondrial (Homo sapiens, UniProt Q9NXA8); experiment: SIRT5 deacylase inhibitors, dose response, biochemical, fluorescence imaging, cherry-pick, set 6 (AID 720597)
[11] = HepG2 cell cytotoxicity, dose response, cytotoxicity control, ATP luminescence, cherry-pick, activator set 2 (AID 1053143); type: functional, cell-based
[12] = target: Endoplasmic reticulum aminopeptidase 1 (Homo sapiens, UniProt Q9NZ08); experiment: ERAP1 aminopeptidase inhibitors, dose response, biochemical, cherry-pick, set 2, plate reader (AID 743314)
[13] = MITF Orthogonal Assay: SK-MEL-5 CTG Assay Measured in Cell-Based System Using Plate Reader - 2084-02_Inhibitor_Dose_DryPowder_Activity_Set7.; type: functional
[14] = MITF: Counter assay: A375 proliferation Measured in Cell-Based System Using Plate Reader - 2084-03_Inhibitor_Dose_DryPowder_Activity_Set8.; type: functional; details: A-375
[15] = TRPM1 promoter luciferase reporter signal decrease, dose response, MITF inhibitor project, cell-based, SK-MEL-5, dry powder, set 8 (AID 624430); type: functional

CC(C)(C)NC(=O)CN(c1cc(C(F)(F)F)ccc1Cl)S(C)(=O)=O
EC50 [1]: > 30 µM (inactive)

CCOC(=O)CSc1nc(C(C)(C)C)nc2ccccc12
IC50 [2]: > 138 µM (inactive) | IC50 [3]: 6.98 µM (active)

COCCNc1nc(-c2cc3ccccc3o2)cs1
EC50 [4]: > 67.5 µM (inactive)

Cc1ccccc1C(OCCN(C)C)c1ccccc1 (stereo not given) [ORPHENADRINE CITRATE]
IC50 [5]: > 10 µM (inactive) | IC50 [6]: > 33.3 µM (inactive) | IC50 [7]: > 10 µM (inactive)

CCOC(=O)C(C(=O)OCC)c1cc(CNS(=O)(=O)c2ccc(C)cc2C)c2ccccc2n1
AC50 [8]: > 52 µM (inactive)

CCCN1CCc2c(sc(NC(=O)C3CCN(S(=O)(=O)c4cccs4)CC3)c2C(N)=O)C1
AC50 [9]: 5.17 µM (active)

C[C@H](CO)N1C[C@H](C)[C@H](CN(C)Cc2ccncc2)Oc2ncc(C#CCN(C)C)cc2C1=O
AC50 [10]: > 30 µM (inactive)

CCC(=O)Nc1cc2nn(-c3ccccc3)nc2cc1Cl
AC50 [11]: 5.02 µM (active)

CCNC(=O)[C@@H]1[C@@H](CO)[C@@H]2Cn3c(ccc(/C=C/c4ccccc4)c3=O)[C@H]1N2C(=O)C1CCCC1
AC50 [12]: 9.24 µM (active)

CN1CCN(C2=C(Nc3ccc(I)cc3)C(=O)c3ccccc3C2=O)CC1
AC50 [13]: 8.33 µM (active) | AC50 [14]: 26 µM (active) | AC50 [15]: 7.32 µM (active)
